# Assay results taken from the supplement of paper PMC10307832.
# Experiments:
# Assay in all cases: relative viability (nuclei count vs DMSO), 5 days (fraction); higher = more cells survive
# [1] = system: NCI-H1915
# In short: (§1)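 Lung cancer cell lines, seeded in 1536-well plates, were treated the following day by pin tool with a single drug or with five library-drug doses (not always all listed) in √10 steps on top of a fixed anchor-drug dose. Cells were fixed and nuclei stained in one step after 5 days, and nuclei were counted. Relative viability is the nuclei count for treated wells divided by that for vehicle wells, reported as medians of duplicate plates.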
# [2] = system: NCI-H1944
# In short: as §1
# [3] = system: NCI-H2023
# In short: as §1
# [4] = system: NCI-H2087
# In short: as §1
# [5] = system: NCI-H441
# In short: as §1
# [6] = system: NCI-H460
# In short: as §1
# [7] = system: NCI-H520
# In short: as §1
# [8] = system: NCI-H596
# In short: as §1
# [9] = system: NCI-H650
# In short: as §1
# [10] = system: NCI-H661
# In short: as §1
# [11] = system: NCI-H727
# In short: as §1
# [12] = system: PC-3 [JPC-3]
# In short: as §1
compound,measurement,setting,value
Clc1ccc(Nc2nnc(Cc3ccncc3)c3ccccc23)cc1 [Vatalanib] + Nc1ncn([C@H]2C[C@H](O)[C@@H](CO)O2)c(=O)n1 [Decitabine] (partner 2 µM),relative viability,[1]; first compound 1.265 µM,0.257
same,relative viability,[1]; first compound 4 µM,0.276
same,relative viability,[2]; first compound 0.04 µM,0.427
same,relative viability,[2]; first compound 0.1265 µM,0.393
same,relative viability,[2]; first compound 0.4 µM,0.476
same,relative viability,[2]; first compound 1.265 µM,0.398
same,relative viability,[2]; first compound 4 µM,0.419
same,relative viability,[3]; first compound 0.04 µM,0.22
same,relative viability,[3]; first compound 0.1265 µM,0.205
same,relative viability,[3]; first compound 0.4 µM,0.231
same,relative viability,[3]; first compound 1.265 µM,0.221
same,relative viability,[3]; first compound 4 µM,0.219
same,relative viability,[4]; first compound 0.04 µM,0.286
same,relative viability,[4]; first compound 0.1265 µM,0.292
same,relative viability,[4]; first compound 0.4 µM,0.273
same,relative viability,[4]; first compound 1.265 µM,0.298
same,relative viability,[4]; first compound 4 µM,0.275
same,relative viability,[5]; first compound 0.04 µM,0.237
same,relative viability,[5]; first compound 0.1265 µM,0.212
same,relative viability,[5]; first compound 0.4 µM,0.206
same,relative viability,[5]; first compound 1.265 µM,0.228
same,relative viability,[5]; first compound 4 µM,0.242
same,relative viability,[6]; first compound 0.04 µM,0.502
same,relative viability,[6]; first compound 0.1265 µM,0.481
same,relative viability,[6]; first compound 0.4 µM,0.482
same,relative viability,[6]; first compound 1.265 µM,0.47
same,relative viability,[6]; first compound 4 µM,0.495
same,relative viability,[7]; first compound 0.04 µM,0.504
same,relative viability,[7]; first compound 0.1265 µM,0.446
same,relative viability,[7]; first compound 0.4 µM,0.581
same,relative viability,[7]; first compound 1.265 µM,0.456
same,relative viability,[7]; first compound 4 µM,0.529
same,relative viability,[8]; first compound 0.04 µM,0.921
same,relative viability,[8]; first compound 0.1265 µM,1.14
same,relative viability,[8]; first compound 0.4 µM,1.22
same,relative viability,[8]; first compound 1.265 µM,1.01
same,relative viability,[8]; first compound 4 µM,1.02
same,relative viability,[9]; first compound 0.04 µM,0.292
same,relative viability,[9]; first compound 0.1265 µM,0.337
same,relative viability,[9]; first compound 0.4 µM,0.306
same,relative viability,[9]; first compound 1.265 µM,0.327
same,relative viability,[9]; first compound 4 µM,0.334
same,relative viability,[10]; first compound 0.04 µM,0.584
same,relative viability,[10]; first compound 0.1265 µM,0.512
same,relative viability,[10]; first compound 0.4 µM,0.544
same,relative viability,[10]; first compound 1.265 µM,0.597
same,relative viability,[10]; first compound 4 µM,0.524
same,relative viability,[11]; first compound 0.1265 µM,0.801
same,relative viability,[11]; first compound 0.4 µM,0.539
same,relative viability,[11]; first compound 1.265 µM,0.821
same,relative viability,[11]; first compound 4 µM,0.973
same,relative viability,[12]; first compound 0.04 µM,0.843
same,relative viability,[12]; first compound 0.1265 µM,0.81
same,relative viability,[12]; first compound 0.4 µM,0.663
same,relative viability,[12]; first compound 1.265 µM,0.857
same,relative viability,[12]; first compound 4 µM,0.777
